Experimental data as given in publication PMC10100771, “A Novel CMY Variant Confers Transferable High-Level Resistance to Ceftazidime-Avibactam in Multidrug-Resistant Escherichia coli” (Microbiology Spectrum, 2023).
Values after ≈ are worked out from the molar mass of the structure shown.

Key:
[1] = tested on: O=C(Cc1cccs1)N[C@@H]1C(=O)N2C(C(=O)O)=C(/C=C/c3ccc([N+](=O)[O-])cc3[N+](=O)[O-])CS[C@H]12; assay: Enzyme kinetics (substrate hydrolysis) of purified CMY-2; assay type: biochemical; settings: other: CMY-2, PBS pH 7.2, room temperature, mean ± SD, three experiments
Description: (§1) blaCMYs (including blaCMY-2, blaCMY-172, and blaCMY-178) were amplified without a signal peptide and cloned into the pET28a, which led to the introduction of an N-terminal His8-Tag.The recombinant plasmids were transformed into E. coli BL21(DE3) and selected using Sanger sequencing. Lysogenic broth containing 50 μg/mL kanamycin was inoculated with transformants and grown to reach an OD600 of 0.6. A final concentration of 1 mM isopropyl-β-D-thiogalactopyranoside (IPTG) was added into the resulting culture, which was shaken at 18°C overnight. The culture broth was centrifuged to harvest bacteria. The pellet was resuspended in lysis buffer (50 mM Tris-HCl and 300 mM NaCl (pH 7.5)) and disrupted using a JN-02C French press (JNBIO, Guangzhou, China) at 1,100 bar. Then, the cell debris was removed by centrifugation at 11,000 rpm for 40 min at 4°C. The supernatant was added to an Ni column, and the absorbed protein was eluted by the eluent buffer (lysis buffer with 300 mM imidazole). SDS-PAGE confirmed the protein purity of the eluent (>95%), and the sample was loaded onto a pre-equilibrated Superdex 200 column to eliminate imidazole.
(§2) Enzymatic activities were measured using a D8 UV-visible spectrophotometer (Rumqee, Shanghai, China) in phosphate-buffered saline (PBS; pH 7.2) at room temperature. Substrates tested included nitrocefin, ceftazidime, and avibactam. The extinction coefficient and wavelength of nitrocefin are 17,400 M^−1 · cm^−1 and 482 nm, respectively. […] The initial reaction velocities (v) were measured and Ki values were calculated by fitting data into equation 1 with GraphPad Prism v9.0.0 ([37]). (1) v=Vmax[S]/[S]+Km NCF (1+[I]/Ki)

E. coli J53 = assay: MIC by agar dilution, recipient E. coli J53; assay type: cell-based; settings: Escherichia coli
Description: (§3) Antimicrobial susceptibility testing was performed and interpreted according to the Clinical and Laboratory Standards Institute (CLSI) guidelines and breakpoints (M100, 31st edition) by the agar dilution method. E. coli ATCC 25922 and K. pneumoniae ATCC 700603 served as control strains.
(§4) The antibiotics we used included meropenem (Hanhui Pharmaceutical Co., Ltd., China), imipenem (Merck Sharp & Dohme Corp., USA), cefepime (Jiangsu Hengrui Pharmaceutical Co., Ltd., China), piperacillin (Suzhou Erye Pharmaceutical Co., Ltd., China), ceftazidime (Guangdong Jincheng Jinsu Pharmaceutical Co., Ltd., China), tazobactam (Meilunbio, China), avibactam (MedChemExpress, USA), aztreonam (Sigma-Aldrich, USA), amikacin (Meilunbio), cefuroxime (Esseti Farmaceutici S.r.l., Italy), fosfomycin (Harbin Pharmaceutical Group Co., Ltd. China), levofloxacin (Daiichi Sankyo Company Limited, Beijing, China), and cefotaxime (North China Pharmaceutical Hebei Huamin Pharmaceutical Co., Ltd., China).
(§5) Conjugation experiments were performed by filter mating using sodium-azide-resistant E. coli J53 as the recipient, as described previously. Transconjugants were selected with MH agar containing 100 μg/mL sodium azide and 4 μg/mL ceftazidime-avibactam; furthermore, transconjugants were named J53-AR13438 and J53-KPCZA02, respectively. We compared genomes of AR13438 and J53 to select a unique gene (gtrA) to J53. The blaCMY-178-postive transconjugants were confirmed by PCR and MALDI-TOF MS (see Fig. S9 in the supplemental material). The primers used for PCR were gtrA-F, gtrA-R, CMY-F, and CMY-R (Table S1). The transfer frequencies were calculated as the number of transconjugants (CFU/mL) divided by the number of recipients (CFU/mL). Donors and recipients were mixed at 1:1 for the transfer frequency experiment. S1-PFGE and Southern blotting were performed to define the location of blaCMY-178 and confirm the transmission of the plasmid as described previously ([35]). The MIC profiles of transconjugants were also determined by the agar dilution method.

E. coli J53-AR13438 = assay: MIC by agar dilution, conjugant containing pAR13438_2; assay type: cell-based; settings: Escherichia coli, J53AR13438, E. coli J53-AR13438 (blaCMY-178)
Description: as §3
as §5, with “The blaCMY-178-postive transconjugants were confirmed by PCR and MALDI-TOF MS (see Fig. S9 in the supplemental material).” left out

E. coli DH5α = assay: MIC by agar dilution, E. coli DH5α; assay type: cell-based; settings: Escherichia coli
Description: as §3, §4

[2] = tested on: E. coli DH5α-pCR2.1-CMY-178; assay: MIC by agar dilution, transformant containing blaCMY-178; assay type: cell-based, Escherichia coli; settings: for MIC: Escherichia coli, E. coli DH5α-pCR2.1-CMY-178, agar dilution
Description: as §3, §4
(§6) The blaCMY cloning was performed using a TA cloning kit (Invitrogen, Shanghai, China). The blaCMY-178 gene combined with its predicted promoter was amplified from isolate AR13438. Then, the blaCMY-178 gene was cloned into the linearized vector pCR2.1 using T4 DNA ligase (Invitrogen). The blaCMY-172 gene was cloned from KPCZA02 with the same method. The resulting plasmids were chemically transformed into E. coli DH5α. The positive transformants were identified by blue-white screening in MH agar containing 50 μg/mL kanamycin and were further confirmed by Sanger sequencing. The pCR2.1 blank vector was also transformed into E. coli DH5α as a control. The primers used for cloning were CMY-F and CMY-R (see Table S2 in the supplemental material). Relative CMY expression was measured by reverse transcription-quantitative PCR as described previously ([34]). Specific quantitative PCR (qPCR) primers (q-recA-F/R and q-CMY-F/R) were designed (Table S2).

[3] = tested on: E. coli DH5α-pCR2.1-CMY-2; assay: MIC by agar dilution, transformant containing blaCMY-2; assay type: cell-based; settings: Escherichia coli
[4] = tested on: E. coli DH5α-pCR2.1-CMY-172; assay: MIC by agar dilution, transformant containing blaCMY-172; assay type: cell-based; settings: Escherichia coli
Description: as §3, §4, §6

E. coli DH5α-pCR2.1 = assay: MIC by agar dilution, DH5α with blank vector pCR2.1; assay type: cell-based; settings: Escherichia coli
Description: as §3, §4, §6

E. coli strain AR13438 = assay: MIC by agar dilution, clinical isolate AR13438; assay type: cell-based, Escherichia coli; settings: Escherichia coli; AR13438, clinical E. coli isolate (blaCMY-178, blaTEM-1, blaCTX-M-27); agar dilution
Description: as §3, §4

E. coli J53-KPCZA02 = assay: MIC by agar dilution, conjugant containing pKPCZA02_4; assay type: cell-based; settings: Escherichia coli, J53KPCZA02, E. coli J53-KPCZA02 (blaCMY-172)
Description: as §3
as §5, with “The blaCMY-178-postive transconjugants were confirmed by PCR and MALDI-TOF MS (see Fig. S9 in the supplemental material).” left out

[5] = tested on: K. pneumoniae isolate KPCZA02; assay: microbe, parasite or virus in culture; assay type: cell-based; settings: Klebsiella pneumoniae
Description: as §3

CMY-172 = target: T1, CMY-172 (Klebsiella pneumoniae, UniProt Q48434, DEL310-312/N366I); assay: Enzyme kinetics (substrate hydrolysis) of purified CMY-172; assay type: biochemical
T1 construct: were amplified without a signal peptide and cloned into the pET28a; His8 (N); made in house; host or cells: E. coli BL21(DE3)
Description: as §1, §2

CMY-178 = target: T2, CMY-178 (Klebsiella pneumoniae, UniProt Q48434, DEL310-312/N366I/N90T); assay: Enzyme kinetics (substrate hydrolysis) of purified CMY-178; assay type: biochemical, Escherichia coli
T2 construct: were amplified without a signal peptide and cloned into the pET28a; His8 (N); made in house; host or cells: E. coli BL21(DE3)
Description: as §1, §2

[6] = CMY-172, PBS pH 7.2, room temperature, mean ± SD, three experiments
[7] = CMY-178, PBS pH 7.2, room temperature, mean ± SD, three experiments

| Molecule | Km [1] [µM] | kcat [1] [s⁻¹] | kcat/Km [1] [M⁻¹ s⁻¹] | MIC (E. coli J53) [µg/mL] | MIC (E. coli J53-AR13438) [µg/mL] | MIC (E. coli DH5α) [µg/mL] | MIC [2] [µg/mL] | Increase of MIC by blaCMY-178 compared with blaCMY-172 ([2]; transformants in E. coli DH5α) [fold] | MIC [3] [µg/mL] | MIC [4] [µg/mL] | MIC (E. coli DH5α-pCR2.1) [µg/mL] | MIC (E. coli strain AR13438) [µg/mL] | MIC (E. coli J53-KPCZA02) [µg/mL] | MIC [5] [µg/mL] | Kcat (CMY-172; [6]) [s⁻¹] | Km (CMY-172; [6]) [µM] | Decrease of kcat/Km compared with CMY-2 (CMY-172; CMY-172 vs CMY-2) | Kcat (CMY-178; [7]) [s⁻¹] | Km (CMY-178; [7]) [µM] | Decrease of kcat/Km compared with CMY-2 (CMY-178; CMY-178 vs CMY-2) |
| --- | --- | --- | --- | --- | --- | --- | --- | --- | --- | --- | --- | --- | --- | --- | --- | --- | --- | --- | --- | --- |
| CMY-2 (Klebsiella pneumoniae) | 59.88 ± 2.59 | 732 ± 16.1 | 1.22e+07 ± 600000 | – | – | – | – | – | – | – | – | – | – | – | – | – | – | – | – | – |
| C[C@H]1[C@H](NC(=O)/C(=N\OC(C)(C)C(=O)O)c2csc(N)n2)C(=O)N1S(=O)(=O)O [ATM, aztreonam] | – | – | – | 0.12 (≈ 0.276 µM) | 32 (≈ 73.5 µM) | 0.06 (≈ 0.138 µM) | 32 (≈ 73.5 µM) | 4 | 32 (≈ 73.5 µM) | 8 (≈ 18.4 µM) | 0.12 (≈ 0.276 µM) | 32 (≈ 73.5 µM) | – | – | – | – | – | – | – | – |
| CCN1CCN(C(=O)N[C@@H](C(=O)N[C@@H]2C(=O)N3[C@@H]2SC(C)(C)[C@@H]3C(=O)O)c2ccccc2)C(=O)C1=O [PIP, piperacillin] | – | – | – | 4 (≈ 7.73 µM) | 64 (≈ 124 µM) | 1 (≈ 1.93 µM) | 256 (≈ 495 µM) | – | 256 (≈ 495 µM) | 256 (≈ 495 µM) | 1 (≈ 1.93 µM) | > 256 | 64 (≈ 124 µM) | > 256 | – | – | – | – | – | – |
| C[C@@H](O)[C@H]1C(=O)N2C(C(=O)O)=C(S[C@@H]3CN[C@H](C(=O)N(C)C)C3)[C@H](C)[C@H]12 [MEM, meropenem] | – | – | – | 0.03 (≈ 0.0782 µM) | 0.06 (≈ 0.156 µM) | 0.03 (≈ 0.0782 µM) | 0.06 (≈ 0.156 µM) | – | – | 0.06 (≈ 0.156 µM) | 0.03 (≈ 0.0782 µM) | 0.125 (≈ 0.326 µM) | 0.06 (≈ 0.156 µM) | 128 (≈ 334 µM) | – | – | – | – | – | – |
| C[C@@H](O)[C@H]1C(=O)N2C(C(=O)O)=C(SCCN=CN)C[C@H]12 [IMP, imipenem] | – | – | – | 0.5 (≈ 1.67 µM) | 0.5 (≈ 1.67 µM) | 0.25 (≈ 0.835 µM) | – | – | – | – | – | 1 (≈ 3.34 µM) | 0.5 (≈ 1.67 µM) | 64 (≈ 214 µM) | – | – | – | – | – | – |
| O=C(Cc1cccs1)N[C@@H]1C(=O)N2C(C(=O)O)=C(/C=C/c3ccc([N+](=O)[O-])cc3[N+](=O)[O-])CS[C@H]12 [NCF, nitrocefin] | – | – | – | – | – | – | – | – | – | – | – | – | – | – | 52.41 ± 2.65 | 12 ± 0.66 | approximately 3 fold | 55.81 ± 1.04 | 12.5 ± 0.31 | approximately 3 fold |
